Measured values as given in PubChem BioAssay AID1996.
≈ marks a conversion by molar mass, not a printed value.

conditions: buffer; pH 7.4; 200.0 µM

SMILES	solubility kinetic
Cc1c(C=O)c2ccccc2n1Cc1ccccc1	2.6 µg/mL (≈ 10.4 µM)
Cc1ccc(OCc2ccc([N+](=O)[O-])cc2)c([N+](=O)[O-])n1	1.1 µg/mL (≈ 3.8 µM)
CC1(C)COC(Cn2c3ccccc3c3ccccc32)O1 (stereo not drawn)	< 0.6 µg/mL
COc1ccc(Cl)cc1C(=O)Nc1cccc2ncccc12	2.2 µg/mL (≈ 7.03 µM)
Cc1cccc(C)c1NC(=O)CN1C(=O)NC(C)(C2CC2)C1=O (stereo not drawn)	> 47.3 µg/mL
COc1cc(C2C(C#N)=C(N)OC3=C2C(=O)CC(C)(C)C3)cc2c1OCO2 (stereo not drawn)	21.6 µg/mL (≈ 58.6 µM)
CCC(=O)c1ccc(OCC(=O)OCC(=O)N(CCC#N)c2ccc3c(c2)OCCO3)cc1	47.5 µg/mL (≈ 105 µM)
Cc1ccc(NC(=O)COC(=O)Cn2ccc(=O)[nH]c2=O)cc1C	> 49.7 µg/mL
COc1cccc(NC(=O)COc2ccc3c(c2)CCC3)c1	1.3 µg/mL (≈ 4.37 µM)
O=c1c2ccccc2nc2n1C(CBr)CS2 (stereo not drawn)	> 44.6 µg/mL
O=C(NCc1ccc2c(c1)OCO2)Nc1ccc([N+](=O)[O-])cc1	0.9 µg/mL (≈ 2.85 µM)
Clc1ccc(NCc2cccnc2)cc1	29.9 µg/mL (≈ 137 µM)
CC1(C)CC(NC(=O)c2ccc(Cl)c(Cl)c2)CC(C)(C)N1	> 49.4 µg/mL
O=C(NCCCCc1ccccc1)Nc1cccc(F)c1	8.2 µg/mL (≈ 28.6 µM)
Nc1cc(=O)[nH]c(SCC(=O)Nc2cccc(S(=O)(=O)N3CCCCCC3)c2)n1	11.7 µg/mL (≈ 26.7 µM)
CCOC(=O)c1cc(=O)[nH]c2ccccc12	30.6 µg/mL (≈ 141 µM)
CCc1ccccc1NC(=O)NC(C)c1ccc2c(c1)OCO2 (stereo not drawn)	0.6 µg/mL (≈ 1.92 µM)
CC(=O)C1=C(C)OC(N)=C(C#N)C1c1cccnc1 (stereo not drawn)	> 38.3 µg/mL
CC1CC(=O)N(C)c2cc([N+](=O)[O-])ccc2N1 (stereo not drawn)	> 35.3 µg/mL
ON=C1c2ccccc2-c2ccccc21	1.3 µg/mL (≈ 6.66 µM)
CCc1c(C(=O)NCCc2cccc(C)c2)[nH]c(C)c1C(C)=O	5 µg/mL (≈ 16 µM)
Clc1ccc2c(N3CCOCC3)ccnc2c1	> 37.3 µg/mL
CC(C)=CC(=O)Nc1ccc(S(=O)(=O)Nc2ccccn2)cc1	46.2 µg/mL (≈ 139 µM)
CCOC(=O)C1=C(C)OC(N)=C(C#N)C1c1ccccc1 (stereo not drawn)	37.1 µg/mL (≈ 130 µM)

SMILES	solubility kinetic
Cc1cc(C(=O)OC(C)C(=O)NC2CCCCC2C)c(C)o1 (stereo not drawn)	5.5 µg/mL (≈ 17.9 µM)
CC(C)c1ccc(CN2C(=O)c3ccccc3S2(=O)=O)cc1	1.2 µg/mL (≈ 3.8 µM)
CN1CCN(c2ncnc3scc(-c4ccccc4Cl)c23)CC1	> 51.7 µg/mL
c1ccc2c(c1)[nH]c1cnccc12	> 25.2 µg/mL
O=C1NC2(CCCCC2)C(=O)N1c1ccc(Cl)cc1	3.8 µg/mL (≈ 13.6 µM)
COc1ccc(OCC(=O)Nc2nc3cc4c(cc3s2)OCCO4)cc1	4.6 µg/mL (≈ 12.4 µM)
CC(C)C(=O)NC(=S)Nc1ccc(S(=O)(=O)NC2CCCCC2)cc1	1 µg/mL (≈ 2.61 µM)
COc1cccc(NC(=S)N2CCC(Cc3ccccc3)CC2)c1	5.5 µg/mL (≈ 16.2 µM)
Cc1cccc(NC(=O)N2CCC(NC(=O)c3ccco3)CC2)c1	> 49.1 µg/mL
CCN(CC)C(=O)C1CCCN(C/C=C/c2ccccc2[N+](=O)[O-])C1 (stereo not drawn)	41.7 µg/mL (≈ 121 µM)
CC(C)[C@H](NC(=O)c1ccccc1F)C(=O)OCCN1C(=O)c2ccccc2C1=O	> 61.9 µg/mL
CC(=O)c1sc(NC(=O)COc2ccc(Cl)cc2Cl)nc1C	< 0.4 µg/mL
CCNC(=S)/N=C(/Nc1ccccc1)Nc1nc(C)cc(C)n1	0.8 µg/mL (≈ 2.44 µM)
NC(=O)CSc1nc(-c2ccccc2)nc2c1CCCC2	0.5 µg/mL (≈ 1.67 µM)
Cc1nn2c(nc1=O)NNC2(C)C(C)(C)C (stereo not drawn)	> 33.5 µg/mL
NS(=O)(=O)c1cccc(C(=O)OCC(=O)NC2CCCc3ccccc32)c1 (stereo not drawn)	21.6 µg/mL (≈ 55.6 µM)
Cc1cc(C)c(C2=CSC3=NS(=O)(=O)CCN23)c(C)c1	> 46.3 µg/mL
S=C(NCc1ccco1)NCc1ccccc1Cl	> 42.1 µg/mL
CCOc1ccc(NC(=S)NC(=O)/C=C/c2ccco2)cc1	< 0.3 µg/mL
CC1(C)CC(NS(=O)(=O)c2ccc(Cl)cc2)CC(C)(C)N1	> 49.6 µg/mL
CC(=O)O.Fc1ccc(NC(=S)Nc2cccnc2)cc1	> 46.1 µg/mL
CCOc1ccc(Oc2ccccc2NC(=O)CCNC(C)=O)cc1	> 51.4 µg/mL
O=C(Nc1ccccc1F)c1c[nH]c(=O)[nH]c1=O	5.5 µg/mL (≈ 22.1 µM)
CCCCC(=O)NC(=S)Nc1ccc(NC(=O)C(C)C)c(OC)c1	5.4 µg/mL (≈ 15.4 µM)

SMILES	solubility kinetic
COCCNC(=O)CN1C(=O)NC2(CCOc3ccccc32)C1=O (stereo not drawn)	42.9 µg/mL (≈ 129 µM)
COCc1cc(C)nc(SCc2ccccc2Cl)c1C#N	0.3 µg/mL (≈ 0.941 µM)
CCNc1c(NC(=O)c2cccs2)c(=O)oc2ccccc12	4.5 µg/mL (≈ 14.3 µM)
COc1ccc(C(=O)Nc2cccc(S(=O)(=O)NC3=NCCC3)c2)cc1OC	40.4 µg/mL (≈ 100 µM)
CC(=O)N1CCN(c2c(F)c(F)c(C(F)(F)F)c(F)c2F)CC1	47.9 µg/mL (≈ 139 µM)
Cc1ccc(S(=O)(=O)/N=C(/Nc2nc(C)cs2)c2ccccc2)cc1	8 µg/mL (≈ 21.5 µM)
Cc1cccc(N2CN=C3SCC(=O)N3C2)c1	> 37.1 µg/mL
CN(C)S(=O)(=O)c1ccc(N2CCCC2)c(C(=O)Nc2nccs2)c1	51.6 µg/mL (≈ 136 µM)
CCCN1CCc2c(sc3nc(SC)n(-c4ccccc4)c(=O)c23)C1	33.9 µg/mL (≈ 91.2 µM)
CCN(CC(=O)Nc1cc(Cl)ccc1C)C(=O)C1CC1	> 44.2 µg/mL
CN(C)Cc1c(O)ccc2c(=O)c(-c3ccc(Cl)cc3)coc12	> 49.5 µg/mL
COc1ccc(-c2ncnc(C(F)(F)F)c2-c2csc(C)n2)c(O)c1	53.1 µg/mL (≈ 145 µM)
O=C(Nc1ccccc1)c1ccccc1NC(=O)c1ccccc1C(=O)O	52.6 µg/mL (≈ 146 µM)
O=C(Nc1ccc2cccnc2c1)c1ccc(Br)cc1	0.4 µg/mL (≈ 1.22 µM)
Cn1cnnc1Sc1ccc(S(C)(=O)=O)cc1[N+](=O)[O-]	> 47.1 µg/mL
COc1cccc(CNC(=O)C(Cc2ccccc2)n2cccc2)c1 (stereo not drawn)	29.7 µg/mL (≈ 88.8 µM)
N#CCn1c(Cc2ccccc2)nc2ccccc2c1=O	> 41.3 µg/mL
O=C(/C=C/c1cccc(F)c1)N1CCN(c2ncccn2)CC1	12.4 µg/mL (≈ 39.7 µM)
CCN(C(=O)CN1CCC(C(=O)OC)CC1)c1c(N)n(Cc2ccccc2)c(=O)[nH]c1=O	> 66.5 µg/mL
O=C(NCCc1ccccc1)c1ccc2c(c1)OCCCO2	39.8 µg/mL (≈ 134 µM)
COC(=O)C(Cc1c[nH]c2ccccc12)NC(=O)C1CC1 (stereo not drawn)	> 42.9 µg/mL
CCC(C)(C)NC(=O)C1CCCN1C(=O)NC1CCCCC1 (stereo not drawn)	> 46.4 µg/mL
CCN1CCN(CCC(=O)Nc2ccccc2)CC1	> 39.2 µg/mL
CS(=O)(=O)Nc1cccc(-c2cn3c(n2)SCC3)c1	40 µg/mL (≈ 135 µM)

SMILES	solubility kinetic
CCOC(=O)c1c[nH]c(=S)n1C	> 27.9 µg/mL
CC(C)(C)C(=O)CSc1ncnc2sc3c(c12)CCC3	0.7 µg/mL (≈ 2.28 µM)
O=C1NC(=S)N/C1=C/c1cccnc1	> 30.8 µg/mL
Cc1cnc([N+](=O)[O-])n1CCOC(=O)NC(=O)c1ccc(F)cc1	> 50.4 µg/mL
O=C(Nc1ccccc1)c1cc([N+](=O)[O-])ccc1Cl	3.1 µg/mL (≈ 11.2 µM)
O=S1(=O)CC2SC(=S)N(c3ccccc3)C2C1 (stereo not drawn)	1.3 µg/mL (≈ 4.55 µM)
Nc1[nH]c(=O)[nH]c(=O)c1N=Nc1ccc(C(=O)O)cc1	> 41.3 µg/mL
NS(=O)(=O)c1cccc(NC(=O)c2cccs2)c1	> 42.3 µg/mL
COc1cccc(CC(=O)Nc2nc3ccccc3[nH]2)c1	2.2 µg/mL (≈ 7.82 µM)
Cc1cccc(C(=O)NCCCNC(=O)c2ccco2)c1	> 42.9 µg/mL
Cc1cc(SC2CCOC2=O)nc2ccccc12 (stereo not drawn)	35.5 µg/mL (≈ 137 µM)
O=C(COC(=O)c1ccc[nH]c1=O)NCCc1ccc(F)cc1	44.6 µg/mL (≈ 140 µM)
CNc1nc(N)c([N+](=O)[O-])c(NCC2CCCO2)n1 (stereo not drawn)	> 40.2 µg/mL
CC(=O)Oc1ccc(C(=O)NC(C)CCc2ccccc2)cc1 (stereo not drawn)	42.2 µg/mL (≈ 136 µM)
Cc1cc(NC(=O)Cn2cnc3sc(C)c(C)c3c2=O)no1	17.3 µg/mL (≈ 54.3 µM)
COC(=O)c1ccc(OCC(O)CNC2CCCC2)cc1.Cl (stereo not drawn)	47.7 µg/mL
Cc1ccc(S(=O)(=O)N2CCOC2C(Cl)(Cl)Cl)cc1 (stereo not drawn)	2.6 µg/mL (≈ 7.54 µM)
CCC1(c2ccccc2)NC(=O)N(CC(=O)N2CCc3ccccc32)C1=O (stereo not drawn)	6.8 µg/mL (≈ 18.7 µM)
O=C(c1cc(COc2ccc(F)cc2F)on1)N1CCSCC1	35.8 µg/mL (≈ 105 µM)
CC(CN1C(C)CCCC1C)OC(=O)c1ccc(Cl)cc1 (stereo not drawn)	> 46.5 µg/mL
CCOC(=O)/C(C#N)=C\C1=C(N2CCOCC2)CC(C)(C)OC1	> 48.1 µg/mL
CC[C@H](C)[C@H](NC(N)=O)C(=O)Nc1ccc2c(c1)OCO2	38.6 µg/mL (≈ 132 µM)
CN1CCN2c3ccccc3Cc3ccccc3C2C1.Cl (stereo not drawn)	> 45.1 µg/mL
CC(=O)N(CCc1cccc(C)c1)Cc1cc2cc(C)ccc2[nH]c1=O	1.1 µg/mL (≈ 3.16 µM)

SMILES	solubility kinetic
Cc1nc2ccc(Nc3ccncc3)cc2s1	34.2 µg/mL (≈ 142 µM)
O=C(c1cc(-c2cccc(Cl)c2)on1)N1CCCCCC1	14 µg/mL (≈ 45.9 µM)
CCOC(=O)NC(=S)Nc1ccc(OC)cc1	25.6 µg/mL (≈ 101 µM)
O=C(CN1C(=O)c2ccccc2C1=O)Oc1ccc(Cl)cc1	28 µg/mL (≈ 88.7 µM)
COc1ccc(-n2c(C)cc3cc(OC(C)=O)ccc32)cc1	0.7 µg/mL (≈ 2.37 µM)
C=C(C)c1cccc(C(C)(C)NC(=O)Nc2ccc(OC)nc2)c1	14 µg/mL (≈ 43 µM)
CCc1ccccc1NC(=O)COC(=O)c1c(C)nsc1NC	1.9 µg/mL (≈ 5.7 µM)
CCCc1cc(C(=O)Nc2cc(C)ccc2O)no1	1.2 µg/mL (≈ 4.61 µM)
O=c1cc(C(F)(F)F)[nH]c(=S)n1-c1ccccc1	> 40.8 µg/mL
CC(=O)NC(Cc1ccccc1)C(C)=O (stereo not drawn)	> 30.8 µg/mL
Cc1[nH]c2ccccc2c1C(=O)CSc1cccc[n+]1[O-]	40.8 µg/mL (≈ 137 µM)
COc1cc(C=O)ccc1OCC(=O)Nc1ccc2c(c1)OCO2	7.6 µg/mL (≈ 23.1 µM)
Clc1ccc(C2Nc3cccc4cccc(c34)N2)cc1Cl	0.4 µg/mL (≈ 1.27 µM)
CCOC(=O)c1ccc(NC(=O)c2ccco2)cc1	> 38.9 µg/mL
OC(c1nc2ccccc2[nH]1)C(O)C(O)C(O)c1nc2ccccc2[nH]1 (stereo not drawn)	1.4 µg/mL (≈ 3.95 µM)
CN(c1ccccc1)S(=O)(=O)c1cc(C(=O)N2CCN(c3ncccn3)CC2)ccc1Cl	33.5 µg/mL (≈ 71 µM)
O=C(COC(=O)c1ccc2c(c1)OCCO2)Nc1ccc(F)cc1F	6.9 µg/mL (≈ 19.8 µM)
NC(=O)c1cc[n+](Cc2ccc([N+](=O)[O-])cc2)cc1.[Br-]	> 50.7 µg/mL
CN(C)c1nc(=S)nc(NCc2ccccc2)[nH]1	> 39.2 µg/mL
Cc1ccc(NC(=O)COC(=O)C2=COCCO2)c([N+](=O)[O-])c1	6.6 µg/mL (≈ 20.5 µM)
CC(c1ccccc1)C1CC(=O)N(c2cc(Cl)ccn2)C1=O (stereo not drawn)	> 47.2 µg/mL
CN(C)C(CNC(=O)c1ccco1)c1cccs1 (stereo not drawn)	> 39.7 µg/mL
